Data on eleven compounds can be found in ChEMBL document CHEMBL5465560, “Selectivity Literature for EUbOPEN Chemogenomic Library” (2024).

Test [1] addresses Serine/threonine-protein kinase pim-2 (Homo sapiens, UniProt Q9P1W9). Nature of the test: Selectivity interaction (KinomeScan (DiscoverX)) EUB0001619a PIM2. To be noted: at 1 µM.
In test [2] the target is Bone morphogenetic protein receptor type-1B (Homo sapiens, UniProt O00238). The conditions noted are these: at 10 µM.
The subject of test [3] is eIF-2-alpha kinase GCN2 (Homo sapiens), Q9P2K8 [S808G]. To be noted: at 10 µM.
Test [4] concerns the target Mitogen-activated protein kinase 1 (Homo sapiens, UniProt P28482). To be noted: at 10 µM.
In test [5] the target is SRSF protein kinase 2 (Homo sapiens) (UniProt P78362). Nature of the test: Selectivity interaction (Kinase panel (Invitrogen)) EUB0000639a SRPK2. The conditions noted are these: at 200 nM.
In test [6] the target is MAP kinase-activated protein kinase 3 (Homo sapiens) (UniProt Q16644). In words: Selectivity interaction (ProQinase) EUB0000171b MAPKAPK3.
The target in test [7] is Serine/threonine-protein kinase Nek4 (Homo sapiens) (UniProt P51957). Nature of the test: Selectivity interaction (Ambit KINOMEscan and KiNATiv profiling in Jurkat cells) EUB0000090b NEK4. Type of test: cell-based. To be noted: at 1 µM.
Test [8] addresses RAF proto-oncogene serine/threonine-protein kinase (Homo sapiens) (UniProt P04049). Nature of the test: Selectivity interaction (KinomeScan (DiscoverX)) EUB0001049a RAF1. The conditions noted are these: at 1 µM.
The target of test [9] is T1, Serine/threonine-protein kinase 4 (Homo sapiens) (UniProt Q13043).
T1 sequence (whole entry): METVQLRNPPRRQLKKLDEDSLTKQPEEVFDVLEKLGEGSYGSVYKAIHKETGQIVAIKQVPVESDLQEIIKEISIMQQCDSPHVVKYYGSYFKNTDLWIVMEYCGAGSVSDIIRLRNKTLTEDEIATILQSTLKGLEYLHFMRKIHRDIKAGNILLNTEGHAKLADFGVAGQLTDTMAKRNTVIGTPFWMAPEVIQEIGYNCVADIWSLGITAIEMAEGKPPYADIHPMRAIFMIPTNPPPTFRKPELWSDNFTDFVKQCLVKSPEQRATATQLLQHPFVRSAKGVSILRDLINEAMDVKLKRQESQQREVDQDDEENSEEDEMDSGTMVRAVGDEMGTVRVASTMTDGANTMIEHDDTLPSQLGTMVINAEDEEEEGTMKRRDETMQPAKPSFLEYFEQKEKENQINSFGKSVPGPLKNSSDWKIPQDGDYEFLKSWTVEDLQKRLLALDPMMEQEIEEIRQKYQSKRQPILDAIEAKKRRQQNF
In words: Selectivity interaction (KinomeScan (DiscoverX)) EUB0001049a STK4. The conditions noted are these: at 1 µM.

Test [10] addresses T2, cGMP-dependent protein kinase 1 (Homo sapiens) (UniProt Q13976).
T2 sequence (whole entry): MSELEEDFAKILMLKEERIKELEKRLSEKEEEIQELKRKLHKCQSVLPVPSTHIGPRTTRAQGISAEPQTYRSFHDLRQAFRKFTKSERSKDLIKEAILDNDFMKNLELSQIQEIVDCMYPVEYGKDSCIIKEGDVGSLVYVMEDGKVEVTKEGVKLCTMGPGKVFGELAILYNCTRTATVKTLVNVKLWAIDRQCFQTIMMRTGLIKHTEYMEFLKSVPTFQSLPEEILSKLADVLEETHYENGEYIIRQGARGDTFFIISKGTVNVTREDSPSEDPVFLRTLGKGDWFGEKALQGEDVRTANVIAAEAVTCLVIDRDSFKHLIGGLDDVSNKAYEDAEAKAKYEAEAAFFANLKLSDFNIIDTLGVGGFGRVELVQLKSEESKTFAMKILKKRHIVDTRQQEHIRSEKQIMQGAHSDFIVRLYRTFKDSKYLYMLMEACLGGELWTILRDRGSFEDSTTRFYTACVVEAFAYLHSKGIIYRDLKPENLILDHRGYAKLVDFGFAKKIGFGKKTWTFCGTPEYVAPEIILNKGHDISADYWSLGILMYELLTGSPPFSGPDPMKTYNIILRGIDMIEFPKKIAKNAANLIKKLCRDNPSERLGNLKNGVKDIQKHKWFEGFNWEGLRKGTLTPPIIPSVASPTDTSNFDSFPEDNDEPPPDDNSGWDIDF
In words: Selectivity interaction (KinomeScan (DiscoverX)) EUB0000655a PRKG1. The conditions noted are these: at 10 µM.

Test [11] deals with Ribosomal protein S6 kinase alpha-5 (Homo sapiens) (UniProt O75582). In words: Selectivity interaction (KinomeScan (DiscoverX)) EUB0000655a RPS6KA5. To be noted: at 10 µM.
For test [12], the target named is Mitogen-activated protein kinase 3 (Homo sapiens, UniProt P27361). In words: Selectivity interaction (KinomeScan (DiscoverX)) EUB0000092b MAPK3. The conditions noted are these: at 10 µM.
Test [13] concerns the target Beta-2 adrenergic receptor (Homo sapiens, UniProt P07550). In words: Selectivity interaction (Panel of kinases, GPCRs, ion channels and transporters (enzymatic assay)) EUB0000266bCl ADRB2.
Test [14] has as its target Protein kinase C gamma type (Homo sapiens) (UniProt P05129). In words: Selectivity interaction (Millipore kinase profiler) EUB0000124b PRKCG. To be noted: at 10 µM.
Test [15] concerns the target T3, Serine/threonine-protein kinase D2 (Homo sapiens) (UniProt Q9BZL6).
T3 sequence (whole entry): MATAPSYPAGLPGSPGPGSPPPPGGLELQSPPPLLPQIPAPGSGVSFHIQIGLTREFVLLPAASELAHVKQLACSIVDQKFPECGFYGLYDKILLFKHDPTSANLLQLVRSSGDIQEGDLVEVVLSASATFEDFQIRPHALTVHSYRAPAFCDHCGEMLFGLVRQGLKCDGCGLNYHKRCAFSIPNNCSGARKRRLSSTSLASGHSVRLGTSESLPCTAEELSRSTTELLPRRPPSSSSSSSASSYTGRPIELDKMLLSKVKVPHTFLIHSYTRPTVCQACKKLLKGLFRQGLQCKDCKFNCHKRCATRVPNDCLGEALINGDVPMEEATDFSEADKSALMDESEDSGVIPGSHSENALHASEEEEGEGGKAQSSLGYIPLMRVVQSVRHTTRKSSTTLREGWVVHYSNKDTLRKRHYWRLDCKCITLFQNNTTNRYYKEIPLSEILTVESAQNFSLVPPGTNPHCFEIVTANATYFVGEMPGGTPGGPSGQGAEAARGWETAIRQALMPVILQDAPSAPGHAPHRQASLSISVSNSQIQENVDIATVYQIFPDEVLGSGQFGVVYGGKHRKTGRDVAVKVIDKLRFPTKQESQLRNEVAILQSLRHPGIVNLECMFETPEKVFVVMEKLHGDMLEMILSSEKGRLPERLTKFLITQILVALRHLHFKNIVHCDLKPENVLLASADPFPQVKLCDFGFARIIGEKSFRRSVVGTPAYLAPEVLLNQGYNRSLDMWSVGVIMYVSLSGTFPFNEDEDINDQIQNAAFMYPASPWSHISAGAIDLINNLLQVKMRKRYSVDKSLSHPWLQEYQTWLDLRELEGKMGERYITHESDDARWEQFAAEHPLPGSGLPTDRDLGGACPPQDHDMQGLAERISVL
In words: Selectivity interaction (Kinase panel (KiNativ target engagement assay in Jurkat cells)) EUB0001635a PRKD2. The conditions noted are these: at 1 µM. Type of test: cell-based.

Sequence of MAP kinase-activated protein kinase 3 (Homo sapiens) (Q16644 whole entry, looked up): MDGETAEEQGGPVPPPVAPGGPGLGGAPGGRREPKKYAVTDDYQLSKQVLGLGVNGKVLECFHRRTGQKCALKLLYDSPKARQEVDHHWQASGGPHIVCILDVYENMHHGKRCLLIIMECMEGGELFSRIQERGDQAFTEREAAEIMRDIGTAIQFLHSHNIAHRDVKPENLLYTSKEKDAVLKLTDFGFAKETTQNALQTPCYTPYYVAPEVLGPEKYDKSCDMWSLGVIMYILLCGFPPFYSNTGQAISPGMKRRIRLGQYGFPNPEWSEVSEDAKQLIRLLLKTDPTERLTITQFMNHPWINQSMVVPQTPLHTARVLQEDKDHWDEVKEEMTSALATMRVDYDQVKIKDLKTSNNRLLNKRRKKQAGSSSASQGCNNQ
Sequence of eIF-2-alpha kinase GCN2 (Homo sapiens), Q9P2K8 [S808G] (Q9P2K8 whole entry S808G): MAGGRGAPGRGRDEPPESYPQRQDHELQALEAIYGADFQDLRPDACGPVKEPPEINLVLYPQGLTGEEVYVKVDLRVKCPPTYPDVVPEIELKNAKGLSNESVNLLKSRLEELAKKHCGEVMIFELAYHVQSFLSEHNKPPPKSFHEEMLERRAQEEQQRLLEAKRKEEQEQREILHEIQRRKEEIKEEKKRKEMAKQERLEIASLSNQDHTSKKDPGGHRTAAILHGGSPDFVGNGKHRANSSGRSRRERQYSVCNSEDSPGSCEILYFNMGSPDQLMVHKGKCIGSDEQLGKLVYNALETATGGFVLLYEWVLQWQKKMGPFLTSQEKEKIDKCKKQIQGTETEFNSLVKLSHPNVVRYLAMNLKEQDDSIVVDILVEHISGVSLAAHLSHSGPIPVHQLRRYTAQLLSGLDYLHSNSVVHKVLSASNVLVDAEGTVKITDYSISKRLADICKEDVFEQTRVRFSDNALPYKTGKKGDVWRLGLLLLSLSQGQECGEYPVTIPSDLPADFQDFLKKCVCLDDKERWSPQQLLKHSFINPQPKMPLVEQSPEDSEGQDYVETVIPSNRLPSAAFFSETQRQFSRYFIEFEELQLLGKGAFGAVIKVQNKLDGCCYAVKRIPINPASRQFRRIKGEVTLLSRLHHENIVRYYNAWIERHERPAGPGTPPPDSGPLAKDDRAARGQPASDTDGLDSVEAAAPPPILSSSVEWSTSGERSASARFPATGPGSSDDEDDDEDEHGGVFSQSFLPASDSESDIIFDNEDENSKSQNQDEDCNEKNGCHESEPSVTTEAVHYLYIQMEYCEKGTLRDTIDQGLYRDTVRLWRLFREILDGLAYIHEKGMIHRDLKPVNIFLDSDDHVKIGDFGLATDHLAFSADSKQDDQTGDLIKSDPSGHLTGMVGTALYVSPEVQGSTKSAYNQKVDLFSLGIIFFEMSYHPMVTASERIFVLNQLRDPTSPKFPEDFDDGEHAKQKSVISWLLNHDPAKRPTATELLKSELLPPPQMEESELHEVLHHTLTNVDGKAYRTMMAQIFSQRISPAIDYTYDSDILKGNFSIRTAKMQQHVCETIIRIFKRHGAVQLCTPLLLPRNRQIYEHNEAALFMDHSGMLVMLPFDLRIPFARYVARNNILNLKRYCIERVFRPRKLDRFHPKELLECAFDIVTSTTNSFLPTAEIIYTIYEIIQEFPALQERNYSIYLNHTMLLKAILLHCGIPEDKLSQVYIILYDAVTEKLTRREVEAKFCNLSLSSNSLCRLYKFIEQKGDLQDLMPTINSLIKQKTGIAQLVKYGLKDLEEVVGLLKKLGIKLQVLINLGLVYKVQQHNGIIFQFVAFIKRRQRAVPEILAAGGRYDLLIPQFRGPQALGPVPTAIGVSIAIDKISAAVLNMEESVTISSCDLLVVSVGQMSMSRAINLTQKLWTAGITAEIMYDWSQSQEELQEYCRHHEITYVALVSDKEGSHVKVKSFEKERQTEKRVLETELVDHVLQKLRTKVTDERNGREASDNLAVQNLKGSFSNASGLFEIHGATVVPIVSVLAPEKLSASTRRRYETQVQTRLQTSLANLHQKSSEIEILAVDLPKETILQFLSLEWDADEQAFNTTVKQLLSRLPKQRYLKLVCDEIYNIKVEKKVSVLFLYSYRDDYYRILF
Sequence of Ribosomal protein S6 kinase alpha-5 (Homo sapiens) (O75582 whole entry, looked up): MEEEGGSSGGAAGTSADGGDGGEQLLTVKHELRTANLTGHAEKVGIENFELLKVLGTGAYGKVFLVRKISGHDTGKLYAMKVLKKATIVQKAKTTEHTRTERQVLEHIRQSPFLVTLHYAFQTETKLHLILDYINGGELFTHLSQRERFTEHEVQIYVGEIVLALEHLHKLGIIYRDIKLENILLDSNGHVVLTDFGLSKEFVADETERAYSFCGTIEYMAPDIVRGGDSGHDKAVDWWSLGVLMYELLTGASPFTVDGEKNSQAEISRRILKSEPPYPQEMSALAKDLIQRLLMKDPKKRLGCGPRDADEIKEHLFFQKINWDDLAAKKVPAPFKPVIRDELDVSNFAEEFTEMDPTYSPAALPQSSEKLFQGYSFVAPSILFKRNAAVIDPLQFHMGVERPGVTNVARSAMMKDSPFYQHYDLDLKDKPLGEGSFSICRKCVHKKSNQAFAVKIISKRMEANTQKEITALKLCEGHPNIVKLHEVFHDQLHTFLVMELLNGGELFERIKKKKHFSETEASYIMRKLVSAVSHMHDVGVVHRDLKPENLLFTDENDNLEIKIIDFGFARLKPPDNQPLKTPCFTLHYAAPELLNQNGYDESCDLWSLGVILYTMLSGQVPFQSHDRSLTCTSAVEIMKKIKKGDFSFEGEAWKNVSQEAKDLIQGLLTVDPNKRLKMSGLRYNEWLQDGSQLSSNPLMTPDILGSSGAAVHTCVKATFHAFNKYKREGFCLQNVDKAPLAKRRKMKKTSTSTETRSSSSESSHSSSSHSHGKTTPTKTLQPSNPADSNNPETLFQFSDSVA
Sequence of Serine/threonine-protein kinase pim-2 (Q9P1W9 whole entry, looked up): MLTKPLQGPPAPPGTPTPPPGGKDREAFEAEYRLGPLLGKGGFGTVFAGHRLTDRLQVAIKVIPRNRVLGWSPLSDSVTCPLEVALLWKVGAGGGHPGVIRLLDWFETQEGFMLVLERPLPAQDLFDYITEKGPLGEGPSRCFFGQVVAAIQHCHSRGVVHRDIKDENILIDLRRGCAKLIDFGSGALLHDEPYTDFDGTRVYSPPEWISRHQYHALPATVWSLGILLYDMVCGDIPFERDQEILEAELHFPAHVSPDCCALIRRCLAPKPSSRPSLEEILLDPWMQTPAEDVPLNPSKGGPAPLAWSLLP
Sequence of Bone morphogenetic protein receptor type-1B (O00238 whole entry): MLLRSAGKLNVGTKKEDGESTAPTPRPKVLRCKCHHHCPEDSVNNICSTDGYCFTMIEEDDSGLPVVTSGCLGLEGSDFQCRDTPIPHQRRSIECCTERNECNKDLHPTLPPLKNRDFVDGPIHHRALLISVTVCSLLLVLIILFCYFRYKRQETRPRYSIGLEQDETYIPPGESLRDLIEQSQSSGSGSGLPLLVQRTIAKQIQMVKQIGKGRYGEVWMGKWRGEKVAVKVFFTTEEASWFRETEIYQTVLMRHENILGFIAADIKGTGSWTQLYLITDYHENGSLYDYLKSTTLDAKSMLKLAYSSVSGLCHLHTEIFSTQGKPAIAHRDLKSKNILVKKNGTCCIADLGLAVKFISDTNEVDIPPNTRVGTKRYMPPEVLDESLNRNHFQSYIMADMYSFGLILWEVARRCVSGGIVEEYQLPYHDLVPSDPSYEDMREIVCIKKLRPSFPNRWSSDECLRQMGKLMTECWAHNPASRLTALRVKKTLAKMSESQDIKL
Sequence of RAF proto-oncogene serine/threonine-protein kinase (Homo sapiens) (P04049 whole entry): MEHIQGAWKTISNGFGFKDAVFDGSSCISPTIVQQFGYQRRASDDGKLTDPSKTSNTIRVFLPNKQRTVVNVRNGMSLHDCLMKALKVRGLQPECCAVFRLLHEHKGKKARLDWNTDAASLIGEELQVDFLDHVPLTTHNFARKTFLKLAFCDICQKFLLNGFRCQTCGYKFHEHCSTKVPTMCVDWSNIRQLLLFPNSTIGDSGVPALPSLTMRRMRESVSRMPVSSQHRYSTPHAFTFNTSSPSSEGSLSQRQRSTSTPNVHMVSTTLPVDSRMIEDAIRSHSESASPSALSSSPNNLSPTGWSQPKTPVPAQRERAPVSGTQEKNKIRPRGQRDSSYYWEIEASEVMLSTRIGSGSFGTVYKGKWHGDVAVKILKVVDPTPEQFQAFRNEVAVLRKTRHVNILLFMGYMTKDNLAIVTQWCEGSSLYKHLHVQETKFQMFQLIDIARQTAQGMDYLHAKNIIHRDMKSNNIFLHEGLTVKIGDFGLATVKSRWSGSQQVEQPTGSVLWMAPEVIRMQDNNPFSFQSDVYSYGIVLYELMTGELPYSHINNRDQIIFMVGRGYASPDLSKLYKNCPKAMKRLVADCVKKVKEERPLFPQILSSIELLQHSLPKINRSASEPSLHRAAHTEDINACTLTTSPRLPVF

As to `N#Cc1cccc(-c2c[nH]c3ncnc(N4CCOCC4)c23)c1`, in test [1], the % of control amounted to 100%.

In the case of `Cc1cc([C@@H](C)Nc2ccccc2C(=O)O)c2nc(N3CCOCC3)cc(=O)n2c1` [AZD-6482], the % of control in test [2] worked out at 97%; in [3], 100%; in [4], 100%.

Regarding `CC[C@@H]1[C@H](F)C(=O)N[C@@H]1COc1nccc2cc(C(N)=O)c(OC)cc12` [ZIMLOVISERTIB], in [5], the % of inhibition is -1.85%.

As to `C=CC(=O)Nc1cccc(C(=O)Nc2ccc(Nc3cc(-c4[nH]c(SC)nc4C)ccn3)cc2)c1`, the figures for the % of control in test [6] (at 1 µM) and in test [6] (at 5 µM) were 100% and 65%, respectively.

`CN(C)C/C=C/C(=O)Nc1ccc(C(=O)N2CCCC(Nc3ncc(Cl)c(-c4c[nH]c5ccccc45)n3)C2)cc1` (stereo unspecified) yielded a % of control in test [7] of 100%.

Take `COc1cc(Nc2nc(C)cc(-c3cnn4nc(OC)ccc34)n2)cc(C(F)(F)F)c1`: the figures for the % of control in [8] and in test [9] were 100% and 85%, respectively.

Consider `CN(C)CCOc1ccc(-c2nc(-c3ccncc3)c(-c3ccc4c(c3)CC/C4=N\O)[nH]2)cc1`, for which the % of control in test [10] worked out at 89%; in test [11] it was 100%.

`CCC(=O)N1CCN(c2ccc(-n3c(=O)ccc4cnc5ccc(-c6cnc7ccccc7c6)cc5c43)cc2C(F)(F)F)CC1` returned a % of control in test [12] of 91%.

In [13], `CCn1c(-c2nc3cc(C(=O)N4CCCC(N)C4)ccc3n2C)cc2ccccc21` (stereo unspecified) had a pXC50 of under 4.5 M.

In [14], `CC(=O)Nc1cccc(-n2c(=O)n(C3CC3)c(=O)c3c(Nc4ccc(I)cc4F)n(C)c(=O)c(C)c32)c1` yielded a % of control of 107%.

On to `C=CC(=O)Nc1ccc(C(=O)Nc2[nH]nc3c2CN(C(=O)N[C@H](CN(C)C)c2ccccc2)C3(C)C)cc1`, for which the % of engagement in test [15] is -4.9%.
